We go through 28 compounds from ChEMBL document CHEMBL3259655, “Anthranilic acid derivatives as novel ligands for farnesoid X receptor (FXR)” (Bioorg Med Chem, 2014).

Data set [1] concerns the target T1, Bile acid receptor (Homo sapiens) (UniProt Q96RI1).
T1 sequence (whole entry): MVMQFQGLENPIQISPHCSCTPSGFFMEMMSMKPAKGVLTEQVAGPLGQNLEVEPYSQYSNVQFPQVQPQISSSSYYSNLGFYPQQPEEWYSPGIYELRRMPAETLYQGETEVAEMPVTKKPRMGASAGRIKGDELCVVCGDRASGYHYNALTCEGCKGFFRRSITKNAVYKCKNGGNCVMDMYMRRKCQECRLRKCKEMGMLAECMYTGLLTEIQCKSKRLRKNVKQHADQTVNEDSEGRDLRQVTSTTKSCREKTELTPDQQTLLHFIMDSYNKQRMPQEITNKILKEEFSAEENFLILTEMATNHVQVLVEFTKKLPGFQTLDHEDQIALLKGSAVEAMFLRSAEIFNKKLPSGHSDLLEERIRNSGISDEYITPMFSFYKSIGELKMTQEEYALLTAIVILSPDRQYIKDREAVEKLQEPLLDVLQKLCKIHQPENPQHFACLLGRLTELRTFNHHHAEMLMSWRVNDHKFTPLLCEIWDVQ
Nature of the data set: Agonist activity at human FXR expressed in human HeLa cells assessed as transactivation at 3 uM after 24 hrs by luciferase reporter gene assay relative to GW4064. The data set is classed as cell-based.

The subject of data set [2] is HeLa. As to the kind of experiment: Cytotoxicity against human HeLa cells at >10 uM after 48 hrs by WST-1 assay. The data set is classed as cell-based.
In data set [3] the test system is HepG2. As to the kind of experiment: Cytotoxicity against human HepG2 cells at 10 uM after 48 hrs by WST-1 assay relative to control. The data set is classed as cell-based. The note with it: hepg2, 48 h.
Data set [4] has as its system HeLa. As to the kind of experiment: Cytotoxicity against human HeLa cells at 60 uM after 48 hrs by WST-1 assay. The data set is classed as cell-based.
Data set [5] has as its target T1, Bile acid receptor (Homo sapiens). As to the kind of experiment: Agonist activity at human FXR expressed in human HeLa cells assessed as transactivation after 24 hrs by luciferase reporter gene assay relative to GW4064. The data set is classed as cell-based.
A short description of data set [6]: Metabolic stability in Sprague-Dawley rat liver microsomes assessed as compound remaining at 10 uM after 15 mins by HPLC analysis. The following applies: read-out: Stability. In kind it is ADME.
A short description of data set [7]: Aqueous solubility of the compound. The note with it: water. In kind it is physicochemical.
Data set [8] relates to HepG2. Nature of the data set: Cytotoxicity against human HepG2 cells at 60 uM after 48 hrs by WST-1 assay relative to control. The data set is classed as cell-based. The following applies: hepg2, 48 h.
A short description of data set [9]: Metabolic stability in Sprague-Dawley rat liver microsomes assessed as compound remaining at 10 uM after 30 mins by HPLC analysis. The data set is classed as ADME. The following applies: read-out: Stability.
Data set [10] can be described thus: Metabolic stability in Sprague-Dawley rat liver microsomes assessed as compound remaining at 10 uM after 60 mins by HPLC analysis. The data set is classed as ADME. The note with it: read-out: Stability.
Data set [11] deals with HepG2. As to the kind of experiment: Cytotoxicity against human HepG2 cells at 30 uM after 48 hrs by WST-1 assay relative to control. The data set is classed as cell-based. The following applies: hepg2, 48 h.
The target of another data set is T2, Bile acid receptor (Homo sapiens, UniProt Q96RI1).
T2 sequence (Q96RI1 whole entry): T1 sequence (whole entry)
Nature of the data set: Agonist activity at human FXR expressed in human HeLa cells assessed as transactivation after 24 hrs by luciferase reporter gene assay. In kind it is cell-based.

Data set [12] relates to HepG2. As to the kind of experiment: Cytotoxicity against human HepG2 cells at 100 uM after 48 hrs by WST-1 assay relative to control. In kind it is cell-based. The following applies: hepg2, 48 h.
Data set [13] concerns the target T1, Bile acid receptor (Homo sapiens). Nature of the data set: Agonist activity at human FXR expressed in human HeLa cells assessed as transactivation at 30 uM after 24 hrs by luciferase reporter gene assay relative to GW4064. The data set is classed as cell-based.

SMILES strings stand for the structures. Converted amounts (≈) assume the structure as drawn. The source made the active and inactive calls. The calls are words filed in the database; no cut-off is given here.

`COc1ccc(C(=O)Nc2ccccc2C(=O)NCCCC(=O)O)cc1`: in [1], the max activation result is “inactive”. In addition, the Activity result in the data set with HeLa [2] is recorded as “Toxic”.

As for `O=C(O)c1cccc(NC(=O)c2ccccc2NC(=O)c2ccc3ccccc3c2)c1`, the Activity with HepG2 [3] was 93%; in the data set with HeLa [4], “Non-toxic”; with HepG2 [8], 50%; with HepG2 [11] it was 65%; in the data set with HepG2 [12] it was 46%. The max activation in [5] was 37%. Also, the remaining at 0.25 h, 10 µM in data set [6] is 86%. Further, the solubility in [7] was 0.3 µg/mL (≈ 0.731 µM). For the same compound, the remaining at 0.5 h, 10 µM in data set [9] is 76%. Besides, the remaining at 1 h, 10 µM in data set [10] was determined as 61%. Further, on Bile acid receptor, the EC50 was 1500 nM. For `CN(CCCC(=O)O)C(=O)c1ccccc1NC(=O)c1ccc2ccccc2c1`, the max activation result in [13] is “inactive”. Take `O=C(O)CCCNC(=O)c1ccccc1NC(=O)c1ccc(-c2ccccc2)cc1`: in [1], the max activation entry was “inactive”. In addition, the Activity entry in the data set on HeLa [2] is “Toxic”. With `O=C(O)c1ccc(NC(=O)c2ccccc2NC(=O)c2ccc3ccccc3c2)cc1`, in data set [5], the max activation was 23%. Also, the concentration giving a half-maximal response (EC50) at Bile acid receptor turned out to be 1000 nM. `O=C(O)CCCNC(=O)c1ccccc1NS(=O)(=O)c1ccc2ccccc2c1`: in data set [13], the max activation entry is “inactive”.

For the compound `CC(C)(C)c1ccc(C(=O)Nc2ccccc2C(=O)NCCCC(=O)O)cc1`, in [5], the max activation came out at 19%. The EC50 at Bile acid receptor turned out to be 2500 nM. On to `CN(C(=O)c1ccc2ccccc2c1)c1ccccc1C(=O)NCCCC(=O)O`, for which, in data set [13], the max activation result was “inactive”. With `O=C(O)CCCNC(=O)c1ccccc1NCc1ccc2ccccc2c1`, in data set [13], the max activation result is “inactive”. Consider `COC(=O)CCCNC(=O)c1ccccc1NC(=O)c1ccc2ccccc2c1`, for which the max activation in data set [5] turned out to be 19%. For the same compound, the EC50 at Bile acid receptor amounted to 7100 nM.

`O=C(O)CCCCCNC(=O)c1ccccc1NC(=O)c1ccc2ccccc2c1`: the max activation in [5] is 10.4%. For the same compound, the EC50 on Bile acid receptor was determined as 4400 nM. Turning to `O=C(O)CCCNC(=O)c1ccccc1NC(=O)c1cc([N+](=O)[O-])cc([N+](=O)[O-])c1`, the max activation entry in data set [13] was “inactive”. In the case of `O=C(O)CCCNC(=O)c1ccccc1NC(=O)c1cccs1`, the max activation result in [1] was “inactive”. In the data set on HeLa [2], the Activity entry was “Toxic”. In the case of `O=C(O)CCCNCc1ccccc1NC(=O)c1ccc2ccccc2c1`, the max activation entry in data set [13] was “inactive”. Turning to `O=C(O)Cc1ccc(NC(=O)c2ccccc2NC(=O)c2ccc3ccccc3c2)cc1`, in data set [5], the max activation amounted to 9.8%. On Bile acid receptor, the EC50 is 3100 nM.

As to `O=C(O)CCCNC(=O)c1ccccc1NC(=O)Cc1ccc2ccccc2c1`, in data set [13], the max activation result was “inactive”.

On to `O=C(O)CCCNC(=O)c1ccccc1NC(=O)c1ccncc1`, for which the max activation entry in [13] was “inactive”. Still for that read-out and setting: the same measure for `Cc1ccc(C(=O)Nc2ccccc2C(=O)NCCCC(=O)O)cc1`: 11%. For `O=C(O)CCCNC(=O)c1ccccc1NC(=O)/C=C/c1ccccc1`, in data set [5], the max activation was determined as 12.4%. Also, at Bile acid receptor, the EC50 stood at 720 nM. The like results for `O=C(O)c1ccc(CNC(=O)c2ccccc2NC(=O)c2ccc3ccccc3c2)cc1` were, in that order, 10% and 1300 nM. As for `O=C(O)CCCNC(=O)c1ccccc1NC(=O)c1cccc(-c2ccccc2)c1`, the max activation entry in [13] was “inactive”. For the compound `CCc1ccc(C(=O)Nc2ccccc2C(=O)NCCCC(=O)O)cc1`, the max activation in data set [5] came out at 28%. Also, the EC50 at Bile acid receptor worked out at 5800 nM. As for `O=C(O)CCCNC(=O)c1ccccc1NC(=O)CC(c1ccccc1)c1ccccc1`, the max activation result in data set [13] was “inactive”. `O=C(O)CCCNC(=O)c1ccccc1NC(=O)c1ccccc1-c1ccccc1`: the max activation result in data set [13] was “inactive”. Take `O=C(O)CCCCNC(=O)c1ccccc1NC(=O)c1ccc2ccccc2c1`: in [5], the max activation worked out at 11.4%. Moreover, the EC50 at Bile acid receptor is 8300 nM.

With `O=C(O)CCCNC(=O)c1ccccc1NC(=O)c1cccc2ccccc12`, the max activation entry in [13] was “inactive”. On to `O=C(O)CCCNC(=O)c1ccccc1NC(=O)C(c1ccccc1)c1ccccc1`, for which the max activation result in data set [1] was “inactive”. Besides, the Activity result with HeLa [2] was “Toxic”. `O=C(O)CCCNC(=O)c1ccccc1NC(=O)CCc1ccccc1`: in data set [13], the max activation result was “inactive”.
